How the values were obtained:
[1] = tested on: burn injury site on the back of a rat; test: Rat burn injury healing test with nonwoven fabrics; type: in vivo; settings: nonwoven fabric test
Description: In this animal testing, the nonwoven fabric A or the nonwoven fabric B was applied to a burn injury site on the back of a rat, and the healing effects by the application of the nonwoven fabric A and B were evaluated. The details of the experiment will be described below.
The back of a rat was depilated. In the depilated portion, hot water at 80° C. was brought into contact for 5 seconds to form two burn injury sites. To the burn injury sites, the nonwoven fabric A (about 2 cm×2 cm) and the nonwoven fabric B (about 2 cm×2 cm) were applied, and occlusive patching was performed using non-permeable surgical tape (Blenderm, 3M) and adhesive flexible bandage (Silkytex 3, ALCARE Co., Ltd). On days 3, 6, and 9 after the application of the nonwoven fabrics A and B, the nonwoven fabrics were removed, and the healing effect was evaluated. […]
Two burn injury sites were each formed on 15 rats, and then the nonwoven fabric A and the nonwoven fabric B were applied to each two burn injury sites. […] On day 3, the nonwoven fabrics A and B on the rats of test group A were removed, and the skin conditions were assessed. On day 6, the nonwoven fabrics A and B on the rats of test group B were removed, and the skin conditions were assessed, and on day 9, the nonwoven fabrics A and B on the rats of test group C were removed, and the skin conditions were assessed. […]

[2] = tested on: burn injury sites on the backs of rats; test: Rat burn injury healing test with films; type: in vivo; settings: film test
Description: The skin conditions of the rats were evaluated according to the following scores (visual inspection).
0: asymptomatic, 1: slight, 2: mild, 3: moderate, 4: crusting, 5: necrosed
The test results were expressed as average values±standard errors and analyzed using EXSUS (Version 8.0, CAC EXICARE Corporation) and SAS (Version 9.3, SAS Institute Japan Ltd). For the scores of the skin conditions, the Wilcoxon test was conducted at a 2-sided significance level of 5%.
In this animal testing, the films 1 to 3 were applied to burn injury sites on the backs of rats, and the healing effects by the application of the films 1 to 3 were evaluated. For comparison, a burn injury site was left untreated, and the development of the untreated site was observed. The details of the experiment will be described below.
The back of a rat was depilated. In the depilated portion, hot water at 80° C. was brought into contact for 5 seconds to form two burn injury sites. […] On days 3, 6, and 9 after the application of the films 1 and 2, the films were removed, and the healing effect was evaluated.
Furthermore, two burn injury sites were formed on the back of another rat in the same manner as described above. […] On days 3, 6, and 9 after the application of the film 3, the film was removed, and the healing effect was evaluated. […]

CCCCCCCCCCCCCCCCCC(=O)OCC(O)CO (centres unmarked) [glycerol alkyl ester, glycerol stearate]
healing effect on skin having a burn injury (conclusion) [1]: has an external wound-healing effect
healing effect on skin having a burn injury (conclusion) [2]: has an external wound-healing effect

Source: patent US11058660B2, “External wound-healing agent, and external wound-healing material” (Mitsui Chemicals, Inc., priority 2014, dated 2021)
